Test results taken from article PMC6504873, “High-throughput screening of the Plasmodium falciparum cGMP-dependent protein kinase identified a thiazole scaffold which kills erythrocytic and sexual stage parasites” (Scientific Reports, 2019).
≈ marks a conversion by molar mass, not a printed value.

Assays:
[1] = target: PI3KD (Homo sapiens, UniProt O00329); test: Preliminary safety test on human PI3KD kinase; type: biochemical
[2] = target: T1, WT PfPKG (Plasmodium falciparum, UniProt Q8I719); test: Kinase Glo enzymatic assay, recombinant WT PfPKG; type: biochemical, P. falciparum; conditions: WT PfPKG (μM), recombinant WT PfPKG
T1 construct: recombinant full length wild type (WT) PfPKG; His6 (N); host or cells: E. coli BL21
T1 sequence (Q8I719 whole entry): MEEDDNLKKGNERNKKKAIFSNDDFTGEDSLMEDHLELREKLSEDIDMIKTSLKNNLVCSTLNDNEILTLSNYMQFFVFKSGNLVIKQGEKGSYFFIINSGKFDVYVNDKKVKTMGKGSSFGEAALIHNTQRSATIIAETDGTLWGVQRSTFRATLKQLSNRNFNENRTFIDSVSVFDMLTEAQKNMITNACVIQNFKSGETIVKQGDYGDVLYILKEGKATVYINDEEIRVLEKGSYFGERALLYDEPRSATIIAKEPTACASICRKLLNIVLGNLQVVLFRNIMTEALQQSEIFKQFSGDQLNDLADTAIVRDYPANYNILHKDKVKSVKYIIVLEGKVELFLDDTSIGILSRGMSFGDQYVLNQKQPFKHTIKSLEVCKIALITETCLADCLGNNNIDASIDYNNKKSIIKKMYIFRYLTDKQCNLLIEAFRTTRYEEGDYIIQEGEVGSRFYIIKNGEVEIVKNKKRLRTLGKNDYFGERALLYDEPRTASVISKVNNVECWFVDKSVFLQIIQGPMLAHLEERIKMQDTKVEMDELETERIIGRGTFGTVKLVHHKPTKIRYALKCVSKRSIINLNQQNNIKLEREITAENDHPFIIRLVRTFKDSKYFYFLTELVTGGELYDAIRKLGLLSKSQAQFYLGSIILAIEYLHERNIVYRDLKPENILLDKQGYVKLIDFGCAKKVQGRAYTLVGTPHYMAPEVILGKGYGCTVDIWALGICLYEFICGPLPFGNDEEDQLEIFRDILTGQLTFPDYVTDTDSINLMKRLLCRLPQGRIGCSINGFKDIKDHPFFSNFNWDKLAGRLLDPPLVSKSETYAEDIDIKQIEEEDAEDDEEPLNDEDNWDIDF
Procedure: To identify new PKG inhibitor scaffolds, the 1.7 million GlaxoSmithKline Full Diversity collection was tested at a single final concentration of 10 μM against recombinant full length wild type (WT) PfPKG using a Kinase Glo-based assay (Promega). The results gave a robust Z′ mean value of 0.85. At an average statistical cut-off of 30%, 20,174 primary hits were identified with an overall hit rate of 1%. Fresh samples of these primary hits were tested in duplicate against WT PfPKG and also against human PKGIα (HuPKGIα) (Supplementary Fig. 1) at a final concentration of 10 μM (confirmation step).
(§1) Protein production was outsourced to the Division of Signal Transduction Therapy, University of Dundee. Briefly, the pTRChis expression vectors (Invitrogen) containing an N-terminally His6-tagged PfPKG wildtype and T618Q were used to transform BL21 cells (protocol adapted from[23]). The cells were grown at 37 °C until the OD600 was 0.4–0.6 then the temperature was reduced to 15 °C and the cells were induced with 250 µM IPTG and grown for a further 16–18 hours before harvesting. The His6-PfPKG was purified on Cobalt agarose followed by gel filtration and the protein was dialysed into 25 mM Hepes pH 7.5, 0.1 mM EGTA, 150 mM NaCl, 50% glycerol and 2 mM DTT.
(§2) Initial optimization of the PKG assay was performed manually in 384-well plates and analysed with GraFit 7. The buffer for all assays was 25 mM HEPES pH 7.3 (GIBCO), 10 mM MgCl2 (Sigma), 2 mM DTT (Sigma), 0.01 mM cGMP (Sigma), 0.1 mg/ml BSA (Ambion). Enzymatic activity was tested using a luminescence-based kit (Promega KinaseGlo). Addition of the first reagent depletes the unused ATP and addition of the second reagent converts ADP (product of the kinase reaction) to ATP, which is then measured through a luciferin/luciferase reaction. The amount of luminescence is directly proportional to ATP turnover by the kinase. The kit was chosen because it can be miniaturized to small volumes (i.e. 4 µl) in 1536-well plates, for use in HTS.
(§3) We used PKA peptide substrate (SCP0212, Sigma-Aldrich) for WT and TQ PfPKG, dissolved in milliQ water at a final concentration of 5 mM, and Long S6 peptide substrate (produced at the University of Dundee, sequence […]) for HuPKGIα, dissolved in water at a final concentration of 30 mM.
(§4) We calculated the Michaelis-Menten (Km) constant for ATP and peptide substrate (PKA or Long S6) for all enzymes using GraphPad Prism (Supplementary Figs 2 and 3 and Supplementary Table 3). In order to identify different types of PKG inhibitors, including ATP competitive or non-competitive inhibitors, as well as inhibitors that bind to the peptide substrate pocket, we performed all assays using ATP and peptide substrate at a concentration equal to the Km. We also determined enzyme activity by calculating ATP turnover (Kcat) over the Km (Supplementary Table 3). The Kcat was calculated as (Vmax*slope)/[E] where Vmax is the maximum velocity and [E] is the concentration of the enzyme.
(§5) The plates containing the compounds were prepared at GSK in Upper Providence or Stevenage. Compounds were tested at a single final concentration of 10 µM or in a dose response with a range of concentrations starting from 100 μM to 1.6 nM (1 in 3 serial dilutions). Compounds were dispensed in the plates at the required concentration in a 40 nl volume. All plates (1536-well white Greiner) contained 40 nl of DMSO in lanes 11 and 12 (control 1, 100% enzyme activity) and were empty in lanes 35 and 36 (control 2, 0% enzyme activity). The plates were removed from −20 °C 1 hour before starting the assay. Using a Multidrop Combi dispenser (Thermo Scientific), 2 µl of the buffer containing ATP and the substrate were added to all wells then 2 µl of buffer only were added to column 35 and 36. Finally 2 µl of buffer containing the enzyme were dispensed in all the plate wells except for lanes 35 and 36. […]

[3] = test system: HepG2 cells; test: Cytotoxicity assay (CellTiter-Glo); type: cell-based; conditions: Homo sapiens, HepG2, read-out: HepG2 (μM)
Procedure: Cytotoxicity assays were performed on HepG2 cells as previously described. HepG2 cells were removed from a T-175 TC flask using 5 mL Eagle’s MEM (containing 10% FBS, 1% NEAA, 1% penicillin/streptomycin) and dispersed in the medium. Seeding density was checked to ensure that new mono-layers were not more than 50% confluent at the time of harvesting. Cells were added to 500 mL of the same medium at a final density of 1.2 × 10^5 cells/mL. They were then dispensed (25 μL, about 3,000 cells per well) into 384-well clear-bottom plates using a Multidrop Combi dispenser. Test compounds (250 nL) were dispensed into the plates with an EchoH liquid handler prior to addition of the cells. Plates were incubated for 48 h at 37 °C, 5% CO2. After incubation, plates were equilibrated at room temperature for 30 minutes before proceeding to develop the luminescent signal. The CellTiter-GloH Reagent was allowed to equilibrate at room temperature for 30 minutes and added to the plates (25 μL per well) using a Multidrop Combi dispenser. Plates were left for 10 minutes at room temperature for stabilization and then read using a Perkin Elmer ViewLux.

[4] = AM_Perm (artificial membrane permeability); type: in vitro ADME; conditions: PAMPA
[5] = target: T2, TQ PfPKG (PfPKG_T618Q) (Plasmodium falciparum, UniProt Q8I719, T618Q); test: Kinase Glo enzymatic assay, gatekeeper mutant TQ PfPKG; type: biochemical, P. falciparum
T2 construct: His6 (N); host or cells: E. coli BL21
T2 sequence (Q8I719 whole entry T618Q): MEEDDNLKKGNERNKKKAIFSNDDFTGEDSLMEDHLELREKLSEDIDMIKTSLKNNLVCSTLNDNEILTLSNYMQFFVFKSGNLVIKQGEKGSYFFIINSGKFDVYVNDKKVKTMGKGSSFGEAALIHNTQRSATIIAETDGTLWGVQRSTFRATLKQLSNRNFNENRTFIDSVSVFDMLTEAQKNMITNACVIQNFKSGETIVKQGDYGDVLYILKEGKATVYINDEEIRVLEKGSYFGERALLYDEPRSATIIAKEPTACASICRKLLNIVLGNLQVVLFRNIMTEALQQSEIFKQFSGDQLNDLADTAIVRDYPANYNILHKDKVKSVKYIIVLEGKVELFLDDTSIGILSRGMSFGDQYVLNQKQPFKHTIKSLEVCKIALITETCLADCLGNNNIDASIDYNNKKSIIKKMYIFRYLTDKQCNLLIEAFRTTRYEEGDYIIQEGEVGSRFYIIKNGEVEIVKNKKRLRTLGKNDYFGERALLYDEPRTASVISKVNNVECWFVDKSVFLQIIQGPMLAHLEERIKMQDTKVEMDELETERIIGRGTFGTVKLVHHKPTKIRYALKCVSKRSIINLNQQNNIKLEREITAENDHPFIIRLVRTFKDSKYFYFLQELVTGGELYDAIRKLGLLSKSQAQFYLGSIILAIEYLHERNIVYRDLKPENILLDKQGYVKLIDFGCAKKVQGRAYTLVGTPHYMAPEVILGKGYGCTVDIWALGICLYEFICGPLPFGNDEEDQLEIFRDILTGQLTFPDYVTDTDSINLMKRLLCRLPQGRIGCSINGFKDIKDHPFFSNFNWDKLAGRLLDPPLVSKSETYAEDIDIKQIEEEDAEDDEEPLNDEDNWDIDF
Procedure: Taking advantage of the availability of more than 3,000 thiazole derivatives among the GSK compound collection, cluster 3 was thoroughly investigated for potent and selective inhibitors of WT PfPKG. […] We explored the binding mode by also testing compounds on the gatekeeper mutant enzyme TQ PfPKG. […] These two time points were chosen to give an indication of the speed of kill of the compounds. […] A preliminary safety test was performed on human AuroraB and LCK kinases which often underpin toxicity issues. […] Further assays for compound characterization included determination of solubility and cytotoxicity (HepG2 inhibition). Thiazoles have been previously identified as human BRaf inhibitors that are used to treat melanoma.
as §1, §2, §3, §4
as §5, with “36.” for “36. Finally 2 µl of buffer containing the enzyme were dispensed in all the plate wells except for lanes 35 and 36.”

[6] = PFI; type: physicochemical
Procedure: Dose response assays were performed in duplicate on WT PfPKG, HuPKGIα and a mock assay performed in the absence of enzyme (the counterscreen). Comparison of the PfPKG and HuPKGIα IC50 values gave information on selectivity and the counterscreen identified luminescent false positive compounds (see Materials and Methods). Cytotoxicity assays were also performed using a human hepatoma cell line (HepG2)[30]. […] This set of compounds was clustered by similarity using a complete-linkage algorithm and a threshold of 0.55[31]. A total of 79 clusters and 54 singletons were obtained.

[7] = Aqueous kinetic solubility assay (CAD); type: physicochemical; conditions: several values in a cell = replicates
Procedure: […] of 10 mM DMSO compound solution is diluted to 100 μl with pH7.4 phosphate buffered saline, equilibrated for 1 hour at room temperature and filtered through Millipore MultiscreenHTS-PCF filter plates (MSSL BPC). The filtrate is quantified by suitably calibrated Charged Aerosol Detector[56].

[8] = ChromlogD (lipophilicity)
[9] = set-up: method as in PMID 24958809; conditions: in the clinic ref 39; cited from earlier work
[10] = test system: P. falciparum; set-up: method as in PMID 28446690; conditions: P. falciparum mouse model ref 44; cited from earlier work
[11] = test system: P. berghei; set-up: method as in PMID 28446690; conditions: P. berghei mouse model ref 44; cited from earlier work

Sequence of PI3KD (O00329 whole entry): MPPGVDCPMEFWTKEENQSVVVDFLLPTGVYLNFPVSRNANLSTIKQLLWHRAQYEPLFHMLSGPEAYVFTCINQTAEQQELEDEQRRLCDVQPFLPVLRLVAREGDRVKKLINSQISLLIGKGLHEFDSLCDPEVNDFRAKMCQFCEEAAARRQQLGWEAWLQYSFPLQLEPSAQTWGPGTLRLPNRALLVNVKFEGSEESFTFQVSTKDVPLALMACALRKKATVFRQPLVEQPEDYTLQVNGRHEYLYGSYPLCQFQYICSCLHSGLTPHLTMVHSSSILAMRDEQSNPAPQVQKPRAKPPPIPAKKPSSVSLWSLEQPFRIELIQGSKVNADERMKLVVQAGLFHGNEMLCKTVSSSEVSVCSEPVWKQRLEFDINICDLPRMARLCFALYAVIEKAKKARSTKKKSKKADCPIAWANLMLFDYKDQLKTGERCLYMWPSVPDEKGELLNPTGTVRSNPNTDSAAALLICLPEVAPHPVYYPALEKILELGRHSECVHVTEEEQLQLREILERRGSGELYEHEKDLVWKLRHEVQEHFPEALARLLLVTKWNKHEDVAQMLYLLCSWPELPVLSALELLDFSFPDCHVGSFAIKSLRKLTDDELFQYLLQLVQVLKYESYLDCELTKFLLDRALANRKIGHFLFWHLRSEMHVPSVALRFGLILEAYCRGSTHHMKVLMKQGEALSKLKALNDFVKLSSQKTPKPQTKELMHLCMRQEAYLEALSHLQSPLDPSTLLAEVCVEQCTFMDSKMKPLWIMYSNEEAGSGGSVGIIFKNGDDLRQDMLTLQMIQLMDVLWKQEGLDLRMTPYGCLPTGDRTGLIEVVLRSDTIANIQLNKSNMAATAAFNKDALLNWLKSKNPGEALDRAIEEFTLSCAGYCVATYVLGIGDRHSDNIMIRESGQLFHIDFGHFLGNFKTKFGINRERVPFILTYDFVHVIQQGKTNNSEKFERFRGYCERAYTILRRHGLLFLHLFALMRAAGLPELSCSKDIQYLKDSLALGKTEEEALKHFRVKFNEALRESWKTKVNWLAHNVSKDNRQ
Sequence of PI3KD (P27986 whole entry partner): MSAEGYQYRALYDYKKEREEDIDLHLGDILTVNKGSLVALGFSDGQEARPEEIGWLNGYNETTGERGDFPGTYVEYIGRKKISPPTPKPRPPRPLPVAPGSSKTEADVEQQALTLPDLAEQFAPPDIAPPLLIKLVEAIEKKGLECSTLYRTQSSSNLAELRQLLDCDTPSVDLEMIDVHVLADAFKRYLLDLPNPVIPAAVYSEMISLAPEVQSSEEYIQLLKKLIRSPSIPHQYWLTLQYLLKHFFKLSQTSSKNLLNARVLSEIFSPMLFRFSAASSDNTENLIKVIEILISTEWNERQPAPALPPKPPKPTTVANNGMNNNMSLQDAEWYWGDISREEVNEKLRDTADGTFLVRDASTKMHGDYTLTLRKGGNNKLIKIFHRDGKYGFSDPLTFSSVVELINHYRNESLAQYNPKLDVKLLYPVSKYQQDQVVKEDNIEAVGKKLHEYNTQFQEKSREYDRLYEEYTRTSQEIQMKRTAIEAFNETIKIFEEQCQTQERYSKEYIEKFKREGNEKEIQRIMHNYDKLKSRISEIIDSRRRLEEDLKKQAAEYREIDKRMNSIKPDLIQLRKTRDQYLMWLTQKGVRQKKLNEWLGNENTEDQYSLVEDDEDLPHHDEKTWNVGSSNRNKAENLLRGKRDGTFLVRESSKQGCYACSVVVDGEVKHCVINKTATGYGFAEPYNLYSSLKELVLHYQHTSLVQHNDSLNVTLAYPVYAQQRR

Nc1nccc(-c2c(-c3ccc(F)cc3)ncn2C2CCNCC2)n1 [Compound 1]
IC50 [1]: > 50.1 µM | IC50 [2]: 0.066 µM | IC50 [3]: > 100 µM | AM Perm [4]: 9.1 ×10⁻⁶ cm/s | IC50 [5]: > 100 µM | PFI [6]: 3.8 | solubility at 1 h ([7]; pH 7.4, aqueous buffer, kinetic from dmso stock): 155 µM (≈ 52.5 µg/mL) | solubility at 1 h [7]: 291 µM (≈ 98.5 µg/mL) | chromatographic logD [8]: 0.8

CC(C)(C)c1nc(-c2cccc(NS(=O)(=O)c3c(F)cccc3F)c2F)c(-c2ccnc(N)n2)s1 [dabrafenib]
patients experiencing severe adverse events [9]: 24%

CS(=O)(=O)c1ccc(-c2cnc(N)c(-c3ccc(C(F)(F)F)nc3)c2)cc1 [MMV390048]
ED90 [10]: 0.57 mg/kg | ED90 [11]: 1.1 mg/kg
